We go through 9 compounds from US8653043B2, “Enhanced neoglycosides through neoglycosylation and methods of use thereof” (Wisconsin Alumni Research Foundation, priority 2009, dated 2014).

The test system of data set [1] is human cancer cell lines. Nature of the data set: Cytotoxicity assay (calcein AM / CellTiter-Glo) in carcinoma cell lines. The data set is classed as cell-based. As to conditions: for improvement of cytotoxic activity over the parent natural product: versus parent 1, breast, colorectal, lung and prostate carcinoma lines; for potency improvement of amide-linked versus ester-linked neoglycoside: ABA compound compared with ester analog bearing the same sugar; for cytotoxic potency compared to parent 1: in one or more cell lines, comparison with betulinic acid (1). The protocol: The cytoxicity of the library members was assessed in seven human cancer cell lines representing a broad range of carcinomas including breast, colorectal, CNS, lung and prostate.
The cytoxicity of ABA1-5 was evaluated in human cell lines of breast, colorectal, lung and prostate carcinomas.
Testing was performed by the Keck-UWCCC Small Molecule Screening Facility (Madison, Wis.). Carcinoma cell lines were maintained and harvested as previously reported, along with compound handling and assay set up.^21 Cells were plated in 50 μL volumes in 384-well clear bottom tissue culture plates. Serial dilutions of 30 mM DMSO compound stock solutions were done in 96-well plates using a BioTek Precision XS liquid handler (Winooski, Vt.) to a concentration 100× greater than that of the most dilute assay. Final dilutions were performed in a 384-well plate in quadruplicate using a Beckman-Coulter Biomek FX liquid handler with a 384 channel pipetting head (Fullerton, Calif.) and were stored at −20° C. when not in use. Compounds were then added to the culture plates by the Biomek FX handler and were incubated at 37° C. for 72 h. The calcein AM reagent (acetoxymethyl ester; 30 μL, 10 μM) was then added, the cells were incubated for 30 m at 37° C., and plates were read for fluorescent emission (535 nm). Cell titer-glo reagent (15 μL; Promega Corp., Madison, Wis.) was added and the plates incubated for 10 m at room temperature with gentle agitation to lyse the cells. Each plate was reexamined for luminescence to verify inhibition. IC50 values for cytotoxicity were determined using XLift 4.2 as previously reported.^21

Data set [2] deals with HIV-1 virus (IIIB strain). Nature of the data set: Anti-HIV-1 cytoprotection (CPE) assay in CEM-SS cells. The data set is classed as cell-based. As to conditions: 1 μM; HIV-1 IIIB-infected CEM-SS cells. The protocol: To assess the corresponding impact of differential glycosylation upon antiviral activity, the entire set of compounds was subsequently tested in a single dose (10 μM) anti-HIV-1 assay against CEM-SS cells (i.e., CD4+ T lymphocytes) infected with the IIIB strain of HIV-1. Compound efficacy was determined by the percent increase of cytoprotective effect (CPE), which is prevention of intercellular virus replication, over untreated HIV-1-infected cells.
Both cells and virus were mixed with compound (10 μM & 1 μM for ABA1-5 and […] for all others) in triplicate in 96-well plates and incubated for six days at 37° C. Compound cytoprotection and cytotoxicity were evaluated using MTS tetrazolium dye (Promega Corp., Madison, Wis.) as previously reported.^23 Each assay plate used the following controls: cells only, cells/virus, cells/compound, compound only. The reverse transcriptase inhibitor AZT and protease inhibitor Indinavir were included as positive controls.

pIC50: −log10 of the molar value.

For `C=C(C)[C@@H]1CC[C@]2(C(=O)O)CC[C@]3(C)[C@H](CC[C@@H]4[C@@]5(C)CC[C@H](NC(=O)CN(OC)[C@@H]6O[C@H](CO)[C@@H](O)[C@@H](O)[C@@H]6O)C(C)(C)[C@@H]5CC[C@]43C)[C@@H]12` [ABA1, (3S)-N-(N′-Methoxy-N′-β-D-altrosylglycyl)betulinic acid], in data set [1], the “improvement of cytotoxic activity over the parent natural product” value (from here on “improvement … over the parent natural product”) is recorded as around 2 fold. For `C=C(C)[C@@H]1CC[C@]2(C(=O)O)CC[C@]3(C)[C@H](CC[C@@H]4[C@@]5(C)CC[C@H](NC(=O)CN(OC)C6OC[C@H](O)[C@H](O)[C@@H]6O)C(C)(C)[C@@H]5CC[C@]43C)[C@@H]12` (stereo partly drawn) [ABA4, (3S)-N-(N′-Methoxy-N′-L-ribosylglycyl)betulinic acid], in data set [1], the “potency improvement of amide-linked versus ester-linked neoglycoside” value was at least 6 fold and the “improvement … over the parent natural product” value is on record as around 2 fold.

`C=C(C)[C@@H]1CC[C@]2(C(=O)O)CC[C@]3(C)[C@H](CC[C@@H]4[C@@]5(C)CC[C@H](NC(=O)CN(OC)C6OC[C@@H](O)[C@H](O)[C@H]6O)C(C)(C)[C@@H]5CC[C@]43C)[C@@H]12` (stereo partly drawn) [ABA5, (3S)-N-(N′-Methoxy-N′-D-xylosylglycyl)betulinic acid]: in data set [1], the “potency improvement of amide-linked versus ester-linked neoglycoside” value is given as at most 2 fold and the “improvement … over the parent natural product” value is recorded as around 2 fold. As for `C=C(C)[C@@H]1CC[C@]2(C(=O)O)CC[C@]3(C)[C@H](CC[C@@H]4[C@@]5(C)CC[C@H](OC(=O)CN(OC)[C@@H]6O[C@H](CO)[C@@H](O)[C@@H](O)[C@H]6O)C(C)(C)[C@@H]5CC[C@]43C)[C@@H]12` [BA1, (3S)-O-(N-Methoxy-N-β-D-allosylglycyl)betulinic acid], the “cytotoxic potency compared to parent 1” value in data set [1] is listed as “equipotent”.

For the compound `C=C(C)[C@@H]1CC[C@]2(C(=O)O)CC[C@]3(C)[C@H](CC[C@@H]4[C@@]5(C)CC[C@H](OC(=O)CN(OC)C6O[C@@H](C)[C@@H](O)[C@@H](O)[C@@H]6O)C(C)(C)[C@@H]5CC[C@]43C)[C@@H]12` (stereo partly drawn) [BA9, (3S)-O-(N-Methoxy-N-L-fucosylglycyl)betulinic acid], the “cytotoxic potency compared to parent 1” value in data set [1] was “equipotent”. Regarding `C=C(C)[C@@H]1CC[C@]2(C(=O)O)CC[C@]3(C)C(CCC4[C@@]5(C)CC[C@H](OC(=O)CN(OC)C6O[C@@H](C)[C@H](O)[C@@H](O)[C@H]6O)C(C)(C)C5CC[C@]43C)C12` (stereo partly drawn) [BA27], the pIC50 in data set [1] (ester-linked BA series, 72 h incubation, cell line not specified / at least one cell line) is at most 4.60. Regarding `C=C(C)[C@@H]1CC[C@]2(C(=O)O)CC[C@]3(C)C(CCC4[C@@]5(C)CC[C@H](OC(=O)CN(OC)[C@H]6OC[C@H](O)[C@@H](O)[C@@H]6O)C(C)(C)C5CC[C@]43C)C12` (stereo partly drawn) [BA32, (3S)-O-(N-Methoxy-N-β-L-xylosylglycyl)betulinic acid], the “cytotoxic potency compared to parent 1” value in data set [1] is reported as “equipotent”. As to `C=C(C)[C@@H]1CC[C@]2(C(=O)O)CC[C@]3(C)[C@H](CCC4[C@@]5(C)CC[C@H](OC(=O)CNOC)C(C)(C)C5CC[C@]43C)C12` (stereo partly drawn) [compound 7, (3S)-O-(N-Methoxyglycyl)betulinic acid], the “cytotoxic potency compared to parent 1” value in data set [1] is listed as “relatively similar potencies”. For the compound `C=C(C)[C@@H]1CC[C@]2(C(=O)O)CC[C@]3(C)[C@H](CC[C@@H]4[C@@]5(C)CC[C@H](NC(=O)CNOC)C(C)(C)[C@@H]5CC[C@]43C)[C@@H]12` [compound 10, (3S)-N-(N′-Methoxyglycyl)aminobetulinic acid], the “increase in CPE” value in data set [2] was “no noticeable activity”. Further, the “cytotoxic potency compared to parent 1” value in data set [1] was “relatively similar potencies”.
